Data: patent US6548085B1, “Insecticidal compositions and method of controlling insect pests using same” (Woodstream Corporation, priority 1998, dated 2003)

What was measured:
Format in all cases: in vivo
German cockroaches = experiment: Direct spray kill time test on German cockroaches; details: aqueous solution, sprayed 3 seconds, entry of 300 = no deaths during that time
Source text: (§1) To determine the effectiveness of an essential oil/sodium lauryl sulfate aerosol spray according to this invention as an insecticide when applied directly by a conventional pump spray on German cockroaches, American cockroaches and various ant species.
(§2) Insects shall be healthy and undeformed. Only adult male and female insects shall be used for testing purposes. The insects shall be contained in a 21.5×15.5×5.5 inch testing arena.
(§3) 1. Gather 10 adult insects, 5 males and 5 females.
(§4) 2. Place 1 insect into the testing arena.
(§5) 3. Select spray to be tested. Spray cockroaches for 3 seconds, ants for 2 seconds.
(§6) 4. Record kill time in seconds.
(§7) 5. Wipe away any spray residue before beginning another test.
(§8) 6. Repeat steps 2, 3, 4 and 5 until all test insects are used.
(§9) 7. Record date of testing, type of test material used, type of insect used, kill time in seconds, and whether or not test specimen meets standard.
(§10) Following this protocol, aqueous solutions of selected essential oils were prepared at different concentrations, both with and without the addition of sodium lauryl sulfate, and tested for their insecticidal activity (kill time in seconds) against German and American cockroaches and black or pavement ants. The results are tabulated below and illustrated graphically in the accompanying drawings.
(§11) ^3 The tests shown in the Tables utilized the active ingredients in an aqueous solution dispensed from a standard pump-type sprayer. Shorter kill times result when the insecticide is aerosolized, i.e., dispensed from a pressurized aerosol can using a propellant such as carbon dioxide.

American cockroaches = experiment: Direct spray kill time test on American cockroaches; details: aqueous solution, sprayed 3 seconds, entry of 300 = no deaths during that time
Source text: as §1, §2, §3, §4, §5, §6, §7, §8, §9, §10, §11

Black Ants = experiment: Direct spray kill time test on black ants; details: aqueous solution, sprayed 2 seconds, entry of 300 = no deaths during that time
Source text: as §1, §2, §3, §4, §5, §6, §7, §8, §9, §10, §11

Pavement Ants = experiment: Direct spray kill time test on pavement ants; details: aqueous solution, pump sprayer, sprayed 2 seconds, entry of 300 = no deaths during that time
Source text: as §1, §2, §3, §4, §5, §6, §7, §8, §9, §10, §11

[1] = cinnamon oil series, pump sprayer
[2] = citronella oil series, pump sprayer
[3] = cornmint oil series, standard pump-type sprayer
[4] = grapefruit oil series, pump sprayer
[5] = peppermint oil series, pump sprayer
[6] = tangerine oil series, pump sprayer
[7] = orange sweet oil series, pump sprayer

CCCCCCCCCCCCOS(=O)(=O)[O-].[Na+] [100% SLS, sodium lauryl sulfate]
Kill Time (German cockroaches; [1]): > 300 s
Kill Time (German cockroaches; [2]): > 300 s
Kill Time (German cockroaches; [3]): > 300^1 Seconds
Kill Time (German cockroaches; [4]): > 300 s
Kill Time (German cockroaches; lemon oil series, pump sprayer): > 300 s
Kill Time (German cockroaches; lime oil series, pump sprayer): > 300 s
Kill Time (German cockroaches; orange sweet oil series, pump sprayer, repetitions of 10% OSO mixture not performed): > 300 s
Kill Time (German cockroaches; [5]): > 300 s
Kill Time (German cockroaches; [6]): > 300 s
Kill Time (American cockroaches; [1]): > 300 s
Kill Time (American cockroaches; [2]): > 300 s
Kill Time (American cockroaches; [3]): > 300 s
Kill Time (American cockroaches; [4]): > 300 s
Kill Time (American cockroaches; lemon oil series, pump sprayer): > 300 s
Kill Time (American cockroaches; lime oil series, pump sprayer): > 300 s
Kill Time (American cockroaches; [7]): > 300 s
Kill Time (American cockroaches; [5]): > 300 s
Kill Time (American cockroaches; [6]): > 300 s
Kill Time (Black Ants; [1]): > 300 s
Kill Time (Black Ants; [3]): > 300 s
Kill Time (Black Ants; [7]): > 300 s
Kill Time (Pavement Ants; citronella oil series): > 300 s
Kill Time (Pavement Ants; grapefruit oil series): > 300 s
Kill Time (Pavement Ants; lemon oil series): > 300 s
Kill Time (Pavement Ants; lime oil series): > 300 s
Kill Time (Pavement Ants; peppermint oil series): > 300 s
Kill Time (Pavement Ants; tangerine oil series): > 300 s
